From paper PMC11335192, “Unveiling the crucial role of betaine: modulation of GABA homeostasis via SLC6A1 transporter (GAT1)” (Cellular and Molecular Life Sciences: CMLS, 2024)

Legend:
Format in all cases: cell-based
rat GAT1 (rGAT1) = molecular target: T1, rat GAT1 (rGAT1) (Rattus norvegicus, UniProt P23978); experiment: TEVC transport currents in Xenopus oocytes; LC-MS/MS uptake; [3H]-GABA efflux in HEK293-rGAT1 cells
T1 construct: gene Slc6a1

human GAT1 (hGAT1) = molecular target: T2, human GAT1 (hGAT1) (Homo sapiens, UniProt P30531); experiment: automated whole-cell patch clamp (Patchliner) on CHO cells overexpressing hGAT1
T2 construct: gene SLC6A1
T2 sequence (P30531 whole entry): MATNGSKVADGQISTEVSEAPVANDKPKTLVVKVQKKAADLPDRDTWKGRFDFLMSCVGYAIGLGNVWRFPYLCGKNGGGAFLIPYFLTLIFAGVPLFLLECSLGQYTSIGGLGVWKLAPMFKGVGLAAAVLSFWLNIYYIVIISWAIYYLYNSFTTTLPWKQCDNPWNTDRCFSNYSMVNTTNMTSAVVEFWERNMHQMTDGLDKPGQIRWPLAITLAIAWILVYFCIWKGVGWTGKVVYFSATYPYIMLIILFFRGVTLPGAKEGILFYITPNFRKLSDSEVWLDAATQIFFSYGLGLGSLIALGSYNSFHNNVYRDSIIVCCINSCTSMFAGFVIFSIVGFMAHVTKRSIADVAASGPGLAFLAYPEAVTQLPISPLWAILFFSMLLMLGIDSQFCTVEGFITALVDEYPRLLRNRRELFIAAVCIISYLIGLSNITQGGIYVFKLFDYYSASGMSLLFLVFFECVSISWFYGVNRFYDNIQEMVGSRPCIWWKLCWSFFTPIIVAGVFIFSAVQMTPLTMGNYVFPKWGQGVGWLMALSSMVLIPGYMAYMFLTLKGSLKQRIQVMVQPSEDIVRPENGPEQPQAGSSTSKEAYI

canine BGT-1 (cBGT-1) = molecular target: T3, canine BGT-1 (cBGT-1) (Canis lupus, UniProt P27799); experiment: TEVC transport currents in Xenopus oocytes
T3 construct: gene SLC6A12
T3 sequence (P27799 1-614): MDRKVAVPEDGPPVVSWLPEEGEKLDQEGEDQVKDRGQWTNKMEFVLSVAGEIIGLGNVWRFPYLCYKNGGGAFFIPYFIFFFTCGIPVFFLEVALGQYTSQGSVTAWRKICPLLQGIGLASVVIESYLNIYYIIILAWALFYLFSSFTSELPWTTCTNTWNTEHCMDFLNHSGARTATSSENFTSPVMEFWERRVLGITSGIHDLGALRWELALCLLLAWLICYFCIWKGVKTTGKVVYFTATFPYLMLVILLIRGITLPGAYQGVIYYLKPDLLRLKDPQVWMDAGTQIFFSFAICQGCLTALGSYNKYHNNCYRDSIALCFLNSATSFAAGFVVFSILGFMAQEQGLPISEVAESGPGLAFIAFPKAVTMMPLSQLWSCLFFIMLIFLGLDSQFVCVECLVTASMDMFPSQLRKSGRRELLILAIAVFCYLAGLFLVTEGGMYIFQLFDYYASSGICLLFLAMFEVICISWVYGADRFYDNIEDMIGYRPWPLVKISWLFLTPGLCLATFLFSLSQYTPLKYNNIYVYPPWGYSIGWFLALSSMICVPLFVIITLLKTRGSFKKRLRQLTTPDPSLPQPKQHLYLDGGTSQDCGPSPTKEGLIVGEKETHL

With `C[N+](C)(C)CC(=O)O` [Betaine] the EC50 (rat GAT1 (rGAT1)) was 11.6 mM, the EC50 (human GAT1 (hGAT1)) was roughly 27 mM and the EC50 (canine BGT-1 (cBGT-1)) was 1.69 mM.
